Reference: patent publication US11612605B2, “(+)-azasetron for use in the treatment of ear disorders” (SENSORION, priority 2016, dated 2023)
Read-outs that look alike come from different tables or passages of the source.

Assay: Pharmacokinetics study: exposure in inner ear, perilymph and tail plasma after single oral dose
Type: in vivo, Wistar rats
Settings: for Total AUC Inner ear / Total AUC Perilymph / Total AUC Tail plasma / concentration at 15 min / concentration at 30 min / concentration at 60 min / concentration at 120 min / concentration at 240 min / concentration at 480 min: 10 mg/kg p.o. single dose; for concentration at 15 min / concentration at 30 min / concentration at 60 min / concentration at 120 min / concentration at 240 min / concentration at 480 min / AUC: male, Wistar, rat; for concentration at 15 min / concentration at 30 min / concentration at 60 min / concentration at 120 min / concentration at 240 min / concentration at 480 min: oral, read-out: Average Inner ear concentration (ng azasetron free-base/g tissue); for AUC: po, 10 mg/kg, 10 mg/kg p.o., per-interval AUC of azasetron free-base
Excerpt: The 72 male Wistar rats received on 28 Jan. 2016 from Janvier (Janvier, Le Genest-St-Isle) were assigned to the study. They were divided in 3 groups of 24 animals each, one group per test article. Each group was divided in […] subgroups according to the 6-termination time-points.
72 Wistar rats were subjected to oral single dose administration of the test article, racemic azasetron hydrochloride, azasetron hydrochloride (+) or azasetron hydrochloride (−), and sacrificed at different time-points to assess the exposure of the test article in the inner ear, perilymph, and plasma. • Group racemic azasetron: 24 male Wistar, 4 rats per time-point: 10 mg/kg azasetron HCl dissolved in NaCl 0.9%. Administrated as 5 mL/kg p.o.; • Group azasetron (+): 24 male Wistar, 4 rats per time-point: 10 mg/kg (+)-azasetron HCl dissolved in NaCl 0.9%. Administrated as 5 mL/kg p.o.; • Group azasetron (−): 24 male Wistar, 4 rats per time-point: 10 mg/kg (−)-azasetron HCl dissolved in NaCl 0.9%. Administrated as 5 mL/kg p.o.
There were 6 termination time-points for each test article. At time-points 15/30/60/120/240/480 minutes after administration: peripheral plasma from the tail was sampled. The animals were sacrificed by i.v. administration of 0.25 mL/rat of a 160 mg/mL pentobarbital solution. Following sacrifice, the heart blood and both tympanic bullas (left and right) were sampled.
Both tympanic bullas (left and right) were collected, however, only the left one was used for the perilymph and inner ear analysis. The right bulla was stored at −20° C. for future needs when required. For animal IDs 1 and 4, the right bulla was used for the sampling of perilymph and inner ear.
The left bulla was dissected fresh. Briefly, the bulla was opened via the auditory opening to reveal the bone surrounding the cochlea after which the tip of the bone was removed with forceps and a 10 μL pipette tip was inserted to withdraw perilymph.
Upon exposure of the tip of the cochlea, 2 μL of perilymph (fluid) could be recovered from the bulla. The perilymph was brought to 10 μL by the addition of 8 μL water, and then extract via the addition of 30 μL of acetonitrile. After that, the samples were centrifuged and the supernatant was transferred to a glass vial appropriate for the HPLC-MS auto-sampler.
Following recovering of the perilymph, the bones of the inner ear and cochlea components were removed with fine forceps and added to a tared Eppendorf tube. The collection was weighed and brought to 10 mg with the addition of water and placed on ice until extraction. 30 μL of acetonitrile was added and the tubes were incubated in an ultrasound bath, after which they were centrifuged and the supernatant was transferred to a glass vial appropriate for the HPLC-MS auto-sampler. In the process or removing the bones of the inner ear, they were finely distributed in the media and broken by forceps. (Due to the very low volume of the tissue and its fine structure, separate grinding is considered risky vs the potential losses to plastic and media. The materials are very fine in nature and the bone particles are small thus providing only short interfaces to media. The absence of fat and the incubation in solvent is intended to provide sufficient solubility of active ingredient).
The acetonitrile used in the sample preparation for bio-analysis contained the internal standard for the HPLC-MS analysis.
30 μL acetonitrile including the internal standard were added to each 10 μL plasma sample. After adding the acetonitrile, the samples were mixed by vortex and further centrifuged. The supernatant was transferred to a glass vial appropriate for the HPLC-MS auto-sampler.
The LC system comprised an Agilent 1260 liquid chromatography equipped with a binary pump and a column oven, together with a PAL HTS-xt auto-sampler. It is linked to the AB SCIEX TRIPLE QUADTM 4500 (triple-quadrupole) instrument with an ESI interface and a switching valve integrated (Mass spectrometric analysis). […]

[1] = inner ear, Time 15 (min), read-out: Inner ear AUC (converted)
[2] = inner ear, Time 30 (min), read-out: Inner ear AUC (converted)
[3] = inner ear, Time 60 (min), read-out: Inner ear AUC (converted)
[4] = inner ear, Time 120 (min), read-out: Inner ear AUC (converted)
[5] = inner ear, Time 240 (min), read-out: Inner ear AUC (converted)
[6] = inner ear, Time 480 (min), read-out: Inner ear AUC (converted)
[7] = perilymph, Time 15 (min), read-out: Perilymph AUC (converted)
[8] = perilymph, Time 30 (min), read-out: Perilymph AUC (converted)
[9] = perilymph, Time 60 (min), read-out: Perilymph AUC (converted)
[10] = perilymph, Time 120 (min), read-out: Perilymph AUC (converted)
[11] = perilymph, Time 240 (min), read-out: Perilymph AUC (converted)
[12] = perilymph, Time 480 (min), read-out: Perilymph AUC (converted)
[13] = tail plasma, Time 15 (min), read-out: Tail plasma AUC (converted)
[14] = tail plasma, Time 30 (min), read-out: Tail plasma AUC (converted)
[15] = tail plasma, Time 60 (min), read-out: Tail plasma AUC (converted)
[16] = tail plasma, Time 120 (min), read-out: Tail plasma AUC (converted)
[17] = tail plasma, Time 240 (min), read-out: Tail plasma AUC (converted)
[18] = tail plasma, Time 480 (min), read-out: Tail plasma AUC (converted)

SMILES	Total AUC Inner ear	Total AUC Perilymph	Total AUC Tail plasma	concentration at 15 min (inner ear, Time 15 (min))	concentration at 30 min (inner ear, Time 30 (min))	concentration at 60 min (inner ear, Time 60 (min))	concentration at 120 min (inner ear, Time 120 (min))	concentration at 240 min (inner ear, Time 240 (min))	concentration at 480 min (inner ear, Time 480 (min))	AUC [1]	AUC [2]	AUC [3]	AUC [4]	AUC [5]	AUC [6]	AUC [7]	AUC [8]	AUC [9]	AUC [10]	AUC [11]	further results
CN1C(=O)COc2c(C(=O)NC3CN4CCC3CC4)cc(Cl)cc21 (racemic) [Racemic azasetron, N-(1-azabicyclo[2.2.2]octan-8-yl)-6-chloro-4-methyl-3-oxo-1,4-benzoxazine-8-carboxamide]	43592 nM·min	25873 nM·min	177194 nM·min	25 ng/g	61 ng/g	63 ng/g	35 ng/g	37 ng/g	7 ng/g	0.0119 µM·h	0.0336 µM·h	0.0887 µM·h	0.14 µM·h	0.204 µM·h	0.248 µM·h	0.0183 µM·h	0.0328 µM·h	0.0455 µM·h	0.0635 µM·h	0.117 µM·h	AUC [12]: 0.154 µM·h; AUC [13]: 0.168 µM·h; AUC [14]: 0.263 µM·h; AUC [15]: 0.309 µM·h; AUC [16]: 0.374 µM·h; AUC [17]: 0.758 µM·h; AUC [18]: 1.08 µM·h
CN1C(=O)COc2c(C(=O)N[C@H]3CN4CCC3CC4)cc(Cl)cc21 [(+)-azasetron]	69036 nM·min	40910 nM·min	210768 nM·min	57 ng/g	86 ng/g	93 ng/g	79 ng/g	52 ng/g	6 ng/g	0.0204 µM·h	0.051 µM·h	0.127 µM·h	0.246 µM·h	0.375 µM·h	0.331 µM·h	0.0194 µM·h	0.0297 µM·h	0.0517 µM·h	0.129 µM·h	0.227 µM·h	AUC [12]: 0.225 µM·h; AUC [13]: 0.0983 µM·h; AUC [14]: 0.192 µM·h; AUC [15]: 0.35 µM·h; AUC [16]: 0.622 µM·h; AUC [17]: 1.11 µM·h; AUC [18]: 1.14 µM·h; exposure (total AUC) to azasetron in the perilymph, inner ear, and plasma versus racemic azasetron or (−)-azasetron (single equivalent oral dose (10 mg/kg)): greater exposure (total AUC)
